Results published in patent publication US8476233B2, “Methods for treatment for ulcerative colitis in mammals” (Therapeutic Research, LLC, priority 2003, dated 2013).
Read-outs that look alike come from different tables or passages of the source.

Columns and labels:
[1] = system: glutathione peroxidase (GPx); conditions: cited from earlier work
colonic mucosa = conditions: rats, 3% solution, cited from earlier work
[2] = system: mitochondrial electron transport chain (whole chain respiration); conditions: same study as cigarette tar; cited from earlier work
ulcerative colitis = assay: Example 3: patient's response to earlier therapies; type: in vivo, human; conditions: patient history before the treatment of the invention
Description: The recurrences occurred every 3-5 months.

N[C@@H](CCS)C(=O)O [Homocysteine, homocysteine]
inhibition of glutathione peroxidase (GPx) activity ([1]; Outinen et al., 1999): 10 fold
concentration of free homocysteine at which inhibition of GPx occurs ([1]; physiologic concentration, Chen, 2000): 9 µmol/L

OO [hydrogen peroxide]
extent of mucosal inflammation above the anus (colonic mucosa; 5 hours after injection): 5 cm
extent of mucosal inflammation above the anus (colonic mucosa; by one week): 9 cm
colonic outcome of rectal injection (colonic mucosa; rectal injection): acute and chronic ulcerative colitis

CN1CCCC1c1cccnc1 (stereo not shown) [nicotine]
effect on electron transport activity [2]: no effect

C[C@]12C=CC(=O)C=C1CC[C@@H]1[C@@H]2C(=O)C[C@@]2(C)[C@H]1CC[C@]2(O)C(=O)CO [prednisone]
clinical response of ulcerative colitis episodes to earlier therapy (ulcerative colitis): improved for a few months
